The source of these data is US20230265094A1, “RIPK1 INHIBITORS AND METHODS OF USE” (Merck Sharp & Dohme LLC, priority 2020, published 2023).

One may read the EC50 as the concentration at which the effect is half-maximal. A high value points to weaker potency.

SMILES strings stand for the structures. Structures can show the parent of a compound that is named as a salt.

This test addresses T1, RIPK1 (Homo sapiens, UniProt Q13546).
T1 construct: recombinant GST-RIPK1 kinase domain (residues 1-327) enzyme produced from baculovirus-transfected Sf21 cells; host or cells: baculovirus-transfected Sf21 insect cells
T1 sequence (Q13546 1-327): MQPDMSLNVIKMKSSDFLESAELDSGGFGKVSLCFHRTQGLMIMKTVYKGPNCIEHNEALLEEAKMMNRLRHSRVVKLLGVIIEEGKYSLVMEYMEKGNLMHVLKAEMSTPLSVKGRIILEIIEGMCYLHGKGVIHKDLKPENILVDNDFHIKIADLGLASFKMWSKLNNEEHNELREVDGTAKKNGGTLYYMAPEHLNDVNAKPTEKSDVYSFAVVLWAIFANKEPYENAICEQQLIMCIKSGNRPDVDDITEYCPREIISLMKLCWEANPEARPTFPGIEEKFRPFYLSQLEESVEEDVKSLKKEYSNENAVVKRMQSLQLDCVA
Nature of the test: RIPK1-ADP-Glo enzymatic assay. As to conditions: ADP-Glo luminescent ADP detection; 25 nM GST-RIPK1 kinase domain (residues 1-327), 300 μM ATP, dephosphorylated-MBP substrate; 30 min pre-incubation, 150 min reaction. Type of test: biochemical. Here is the method: RIPK1-ADP-Glo Enzymatic Assay
The enzymatic activity of RIPK1 is measured using an assay derived from ADP-Glo kit (Promega™), which provides a luminescent-based ADP detection system. Specifically, the ADP generated by RIPK1 kinase is proportionally detected as luminescent signals in a homogenous fashion. In this context, the assessment of the inhibitory effect of small molecules (EC50) is measured by the effectiveness of the compounds to inhibit the ATP to ADP conversion by RIPK1.
In this assay, the potency (EC50) of each compound was determined from a ten-point (1:3 serial dilution; top compound concentration of 100000 nM) titration curve using the following outlined procedure. To each well of a white ProxiPlus 384 well-plate, 30 nL of compound (1% DMSO in final assay volume of 3 μL) was dispensed, followed by the addition of 2 μL of 1×assay buffer (25 mM Hepes 7.3, 20 mM MgCl2, 50 mM NaCl, 1 mM DTT, 0.005% Tween20, and 0.02% BSA) containing 37.5 nM of GST-RIPK1 (recombinant GST-RIPK1 kinase domain (residues 1-327) enzyme produced from baculovirus-transfected Sf21 cells: MW=62 kDa). Plates were placed in an ambient temperature humidified chamber for a 30 minutes pre-incubation with compound. Subsequently, each reaction was initiated by the addition of 1 μL 1×assay buffer containing 900 μM ATP and […] dephosphorylated-MBP substrate. The final reaction in each well of 3 μL consists of 25 nM of GST-RIPK1, 300 μM ATP, and 3 μM dephosphorylated-MBP. Kinase reactions were allowed to proceed for 150 minutes prior to adding ADP-Glo reagents per Promega's outlined kit protocol. Dose-response curves were generated by plotting percent effect (% product conversion; Y-axis) vs. Log10 compound concentrations (X-axis). EC50 values were calculated using a non-linear regression, four-parameters sigmoidal dose-response model.
In general terms: ADP-Glo first removes unused ATP, then detects ADP through luciferase.
`O=C(N1CC(OCc2ccccc2)C1)N1N=CC[C@H]1c1cc(F)cc(F)c1` [Example 1.25, (S)-(3-(benzyloxy)azetidin-1-yl)(5-(3,5-difluorophenyl)-4,5-dihydro-1H-pyrazol-1-yl)methanone] had an EC50 of 11.8 nM.

As for `O=C(N1CC2(CCCO2)C1)N1N=CC[C@H]1c1cc(F)cc(F)c1` [Example 1.26, (S)-(5-(3,5-difluorophenyl)-4,5-dihydro-1H-pyrazol-1-yl)(5-oxa-2-azaspiro[3.4]octan-2-yl)methanone], the EC50 stood at 47.4 nM.

Compound `O=C(N1CC(O)(C(F)(F)F)C1)N1N=CC[C@H]1c1cc(F)cc(F)c1` [Example 1.27, (S)-(5-(3,5-difluorophenyl)-4,5-dihydro-1H-pyrazol-1-yl)(3-hydroxy-3-(trifluoromethyl)azetidin-1-yl)methanone] yielded an EC50 of 988 nM.

`CC1(O)CN(C(=O)N2N=CC[C@H]2c2cc(F)cc(F)c2)C1` [Example 1.28, (S)-(5-(3,5-difluorophenyl)-4,5-dihydro-1H-pyrazol-1-yl)(3-hydroxy-3-methylazetidin-1-yl)methanone] came in with a 50% effective concentration (EC50) of 3590 nM.

On to `CC1(F)CN(C(=O)N2N=CC[C@H]2c2cc(F)cc(F)c2)C1` [Example 1.29, (S)-(5-(3,5-difluorophenyl)-4,5-dihydro-1H-pyrazol-1-yl)(3-fluoro-3-methylazetidin-1-yl)methanone], for which the EC50 was 61.7 nM.

Compound `CC(C)C1(O)CN(C(=O)N2N=CC[C@H]2c2cc(F)cc(F)c2)C1` [Example 1.30, (S)-(5-(3,5-difluorophenyl)-4,5-dihydro-1H-pyrazol-1-yl)(3-hydroxy-3-isopropylazetidin-1-yl)methanone] yielded an EC50 of 2290 nM.

On to `O=C(N1CC(F)C1)N1N=CC[C@H]1c1cc(F)cc(F)c1` [Example 1.31, (S)-(5-(3,5-difluorophenyl)-4,5-dihydro-1H-pyrazol-1-yl)(3-fluoroazetidin-1-yl)methanone], for which it took 38.4 nM to reach a half-maximal effect (EC50).

Consider `O=C(N1CC(F)(F)C1)N1N=CC[C@H]1c1cc(F)cc(F)c1` [Example 1.32, (S)-(3,3-difluoroazetidin-1-yl)(5-(3,5-difluorophenyl)-4,5-dihydro-1H-pyrazol-1-yl)methanone], for which the EC50 is 17.2 nM.

In turn, `O=C(N1CC(Cl)C1)N1N=CC[C@H]1c1cc(F)cc(F)c1` [Example 1.33, (S)-(3-chloroazetidin-1-yl)(5-(3,5-difluorophenyl)-4,5-dihydro-1H-pyrazol-1-yl)methanone] yielded an EC50 of 18.3 nM.

As to `O=C(N1CC(O)(C2CC2)C1)N1N=CC[C@H]1c1cc(F)cc(F)c1` [Example 1.34, (S)-(3-cyclopropyl-3-hydroxyazetidin-1-yl)(5-(3,5-difluorophenyl)-4,5-dihydro-1H-pyrazol-1-yl)methanone], the EC50 was 2460 nM.

Regarding `O=C(N1CC2(C1)CN(c1cnccn1)C2)N1N=CC[C@H]1c1cc(F)cc(F)c1` [Example 1.35, (S)-(5-(3,5-difluorophenyl)-4,5-dihydro-1H-pyrazol-1-yl)(6-(pyrazin-2-yl)-2,6-diazaspiro[3.3]heptan-2-yl)methanone], the EC50 was 5150 nM.

As for `CC1(C#N)CN(C(=O)N2N=CC[C@H]2c2cc(F)cc(F)c2)C1` [Example 1.36, (S)-1-(5-(3,5-difluorophenyl)-4,5-dihydro-1H-pyrazole-1-carbonyl)-3-methylazetidine-3-carbonitrile], a half-maximal response (EC50) required 62.3 nM.

`O=C(N1CC(C(F)F)C1)N1N=CC[C@H]1c1cc(F)cc(F)c1` [Example 1.37, (S)-(3-(difluoromethyl)azetidin-1-yl)(5-(3,5-difluorophenyl)-4,5-dihydro-1H-pyrazol-1-yl)methanone] came in with an EC50 of 22.6 nM.

Regarding `COCCC1CN(C(=O)N2N=CC[C@H]2c2cc(F)cc(F)c2)C1` [Example 1.38, (S)-(5-(3,5-difluorophenyl)-4,5-dihydro-1H-pyrazol-1-yl)(3-(2-methoxyethyl)azetidin-1-yl)methanone], the midpoint of the response, the EC50, lay at 105 nM.

Consider `N#CC1(c2ccccc2)CN(C(=O)N2N=CC[C@H]2c2cc(F)cc(F)c2)C1` [Example 1.39, (S)-1-(5-(3,5-difluorophenyl)-4,5-dihydro-1H-pyrazole-1-carbonyl)-3-phenylazetidine-3-carbonitrile], for which the EC50 came to 648 nM.

`CC1CN(C(=O)N2N=CC[C@H]2c2cc(F)cc(F)c2)C1` [Example 1.40, (S)-(5-(3,5-difluorophenyl)-4,5-dihydro-1H-pyrazol-1-yl)(3-methylazetidin-1-yl)methanone] registered a 50% effective concentration (EC50) of 26 nM.

As for `O=C(N1CC(c2ccccc2)C1)N1N=CC[C@H]1c1cc(F)cc(F)c1` [Example 1.41, (S)-(5-(3,5-difluorophenyl)-4,5-dihydro-1H-pyrazol-1-yl)(3-phenylazetidin-1-yl)methanone], the response was half-maximal at 6.6 nM (EC50).

Take `O=C(N1CC(c2cccnc2)C1)N1N=CC[C@H]1c1cc(F)cc(F)c1` [Example 1.42, (S)-(5-(3,5-difluorophenyl)-4,5-dihydro-1H-pyrazol-1-yl)(3-(pyridin-3-yl)azetidin-1-yl)methanone, TFA salt]: a half-maximal response (EC50) required 28.6 nM.

For `O=C(N1CC(F)(c2ccccc2)C1)N1N=CC[C@H]1c1cc(F)cc(F)c1` [Example 1.43, (S)-(5-(3,5-difluorophenyl)-4,5-dihydro-1H-pyrazol-1-yl)(3-fluoro-3-phenylazetidin-1-yl)methanone], the half-maximal effective concentration (EC50) was determined as 775 nM.

The compound `O=C(N1CC(O)(c2ccccc2)C1)N1N=CC[C@H]1c1cc(F)cc(F)c1` [Example 1.44, (S)-(5-(3,5-difluorophenyl)-4,5-dihydro-1H-pyrazol-1-yl)(3-hydroxy-3-phenylazetidin-1-yl)methanone] yielded an EC50 of 811 nM.

As for `COC1(C)CN(C(=O)N2N=CC[C@H]2c2cc(F)cc(F)c2)C1` [Example 1.45, (S)-(5-(3,5-difluorophenyl)-4,5-dihydro-1H-pyrazol-1-yl)(3-methoxy-3-methylazetidin-1-yl)methanone], the EC50 is 98.5 nM.

In turn, `COC1(C(F)(F)F)CN(C(=O)N2N=CC[C@H]2c2cc(F)cc(F)c2)C1` [Example 1.46, (S)-(5-(3,5-difluorophenyl)-4,5-dihydro-1H-pyrazol-1-yl)(3-methoxy-3-(trifluoromethyl)azetidin-1-yl)methanone] displayed an EC50 of 233 nM.

Regarding `CCOc1cccc(CC2CN(C(=O)N3N=CC[C@H]3c3cc(F)cc(F)c3)C2)c1` [Example 1.48, (S)-(5-(3,5-difluorophenyl)-4,5-dihydro-1H-pyrazol-1-yl)(3-(3-ethoxybenzyl)azetidin-1-yl)methanone], the EC50 was determined as 17.1 nM.

Consider `Cc1ccccc1OC1CN(C(=O)N2N=CC[C@H]2c2cc(F)cc(F)c2)C1` [Example 1.49, (S)-(5-(3,5-difluorophenyl)-4,5-dihydro-1H-pyrazol-1-yl)(3-(o-tolyloxy)azetidin-1-yl)methanone], for which a half-maximal effect (EC50) was put at 11.7 nM.

Take `O=C(N1CC(Oc2ccc(F)cc2)C1)N1N=CC[C@H]1c1cc(F)cc(F)c1` [Example 1.50, (S)-(5-(3,5-difluorophenyl)-4,5-dihydro-1H-pyrazol-1-yl)(3-(4-fluorophenoxy)azetidin-1-yl)methanone]: the response was half-maximal at 7 nM (EC50).

In turn, `O=C(N1CC(c2ccncn2)C1)N1N=CC[C@H]1c1cc(F)cc(F)c1` [Example 1.51, (S)-(5-(3,5-difluorophenyl)-4,5-dihydro-1H-pyrazol-1-yl)(3-(pyrimidin-4-yl)azetidin-1-yl)methanone] gave an EC50 of 1110 nM.

As to `O=C(N1CC(OCc2ncc(Br)s2)C1)N1N=CC[C@H]1c1cc(F)cc(F)c1` [Example 1.52, (S)-(3-((5-bromothiazol-2-yl)methoxy)azetidin-1-yl)(5-(3,5-difluorophenyl)-4,5-dihydro-1H-pyrazol-1-yl)methanone], a half-maximal response (EC50) required 23.9 nM.

`O=C(N1CC2(CCCOC2)C1)N1N=CC[C@H]1c1cc(F)cc(F)c1` [Example 1.53, (S)-(5-(3,5-difluorophenyl)-4,5-dihydro-1H-pyrazol-1-yl)(6-oxa-2-azaspiro[3.5]nonan-2-yl)methanone] displayed an EC50 of 530 nM.

`CS(=O)(=O)C1CN(C(=O)N2N=CC[C@H]2c2cc(F)cc(F)c2)C1` [Example 1.54, (S)-(5-(3,5-difluorophenyl)-4,5-dihydro-1H-pyrazol-1-yl)(3-(methylsulfonyl)azetidin-1-yl)methanone] yielded an EC50 of 4230 nM.
